Laboratory results: a compilation of properties of binary mixtures (doi:10.1016/j.jiec.2013.02.010)

Test: xn = mol fraction of the nth substance listed
Details: 101 kPa

CCCC[n+]1ccn(C)c1.[Cl-] + CCO
Details	electrical conductivity, 298.15 K [S/m]	viscosity, 293.15 K [mPa·s]	viscosity, 298.15 K [mPa·s]	viscosity, 303.15 K [mPa·s]	viscosity, 308.15 K [mPa·s]
x2 = 0.4991	0.326	75	61.4	–	38.3
x2 = 0.5533	0.483	47.9	37.5	31.1	25.6
x2 = 0.6011	0.648	30.6	23.8	–	17
x2 = 0.7003	–	12.1	–	9.2	8.2
x2 = 0.8002	–	5.23	–	4.25	3.84
x2 = 0.9	1.38	2.46	2.24	2.06	1.92
x2 = 0.9501	0.927	–	1.62	–	1.35
x2 = 0.975	0.52	–	1.29	–	–

CCCC[n+]1ccn(C)c1.[Cl-] + CN(C)C=O
Details	electrical conductivity [S/m]	viscosity [mPa·s]
293.15 K, x2 = 0.5025	–	77
293.15 K, x2 = 0.5565	–	49.1
293.15 K, x2 = 0.6003	–	33.9
293.15 K, x2 = 0.6996	–	16.9
293.15 K, x2 = 0.8014	–	5.1
293.15 K, x2 = 0.95	–	1.32
298.15 K, x2 = 0.501	0.218	64
298.15 K, x2 = 0.6134	0.439	24
298.15 K, x2 = 0.6994	0.592	11.4
298.15 K, x2 = 0.8017	0.857	4.44
298.15 K, x2 = 0.9	0.922	1.88
298.15 K, x2 = 0.9502	0.766	1.21
303.15 K, x2 = 0.552	–	34.5
303.15 K, x2 = 0.7005	–	9.5
303.15 K, x2 = 0.9	–	1.73
308.15 K, x2 = 0.5007	–	39.9
308.15 K, x2 = 0.5564	–	25.5
308.15 K, x2 = 0.6001	–	17.5
308.15 K, x2 = 0.7	–	7.8
308.15 K, x2 = 0.95	–	1.04

CCCC[n+]1ccn(C)c1.[Cl-] + CO
Details	electrical conductivity [S/m]	viscosity [mPa·s]
293.15 K, x2 = 0.6026	–	23.2
293.15 K, x2 = 0.7002	–	8.4
293.15 K, x2 = 0.8008	–	3.41
293.15 K, x2 = 0.8999	–	1.63
293.15 K, x2 = 0.95	–	0.95
298.15 K, x2 = 0.5213	0.632	37.6
298.15 K, x2 = 0.5458	0.777	32.5
298.15 K, x2 = 0.5925	1.08	20.4
298.15 K, x2 = 0.7996	3.46	3.25
298.15 K, x2 = 0.9007	4.08	1.38
298.15 K, x2 = 0.95	3.32	0.88
298.15 K, x2 = 0.975	2.24	0.68
303.15 K, x2 = 0.5173	–	36.4
303.15 K, x2 = 0.6044	–	16
303.15 K, x2 = 0.7993	–	2.86
303.15 K, x2 = 0.8999	–	1.25
303.15 K, x2 = 0.95	–	0.85
308.15 K, x2 = 0.5001	–	34.5
308.15 K, x2 = 0.5458	–	23.7
308.15 K, x2 = 0.6026	–	14.9
308.15 K, x2 = 0.7001	–	6.6
308.15 K, x2 = 0.8008	–	2.76

O + CCCC[n+]1ccn(C)c1.[Cl-]
x1 = 1
Details	viscosity [mPa·s]
293.15 K	1.01
298.15 K	0.89
303.15 K	0.8
308.15 K	0.72

CCCC[n+]1ccn(C)c1.[Cl-] + O
Details	electrical conductivity, 298.15 K [S/m]	viscosity, 293.15 K [mPa·s]	viscosity, 298.15 K [mPa·s]	viscosity, 303.15 K [mPa·s]	viscosity, 308.15 K [mPa·s]
x2 = 0.4982	0.32	–	163	118	–
x2 = 0.5535	0.502	141	105	83	61.6
x2 = 0.6132	0.844	86	64.5	50.4	38.7
x2 = 0.7033	1.54	39.4	30.4	24.5	20
x2 = 0.8034	–	15.5	–	10.5	8.69
x2 = 0.8999	5.31	5.3	4.38	–	3.3
x2 = 0.9502	5.98	–	2.22	1.94	1.74
x2 = 0.975	4.98	–	1.52	–	–

CO + CCCC[n+]1ccn(C)c1.[Cl-]
x1 = 1
Details	viscosity [mPa·s]
293.15 K	0.61
298.15 K	0.55
303.15 K	0.51

CN(C)C=O + CCCC[n+]1ccn(C)c1.[Cl-]
x1 = 1
Details	viscosity [mPa·s]
293.15 K	0.86
298.15 K	0.8
303.15 K	0.78
308.15 K	0.73

CCCC[n+]1ccn(C)c1.[Cl-] + CC#N
Details	electrical conductivity [S/m]	viscosity [mPa·s]
293.15 K, x2 = 0.5028	–	111
293.15 K, x2 = 0.5548	–	60.5
293.15 K, x2 = 0.6007	–	38.5
293.15 K, x2 = 0.7003	–	11.9
293.15 K, x2 = 0.8	–	3.9
293.15 K, x2 = 0.9002	–	1.17
293.15 K, x2 = 0.9499	–	0.69
298.15 K, x2 = 0.502	0.29	76
298.15 K, x2 = 0.5483	0.4	53.6
298.15 K, x2 = 0.6038	0.578	28.4
298.15 K, x2 = 0.7021	1.03	10
298.15 K, x2 = 0.9002	1.9	1.12
298.15 K, x2 = 0.9499	1.7	0.63
298.15 K, x2 = 0.975	1.3	0.46
303.15 K, x2 = 0.5065	–	63.1
303.15 K, x2 = 0.5524	–	40.2
303.15 K, x2 = 0.6025	–	25.5
303.15 K, x2 = 0.7003	–	9.3
303.15 K, x2 = 0.8007	–	3.4
303.15 K, x2 = 0.9002	–	1.06
303.15 K, x2 = 0.9499	–	0.57
308.15 K, x2 = 0.5028	–	55.4
308.15 K, x2 = 0.5548	–	33.3
308.15 K, x2 = 0.6007	–	22
308.15 K, x2 = 0.7003	–	8.5
308.15 K, x2 = 0.8	–	3.04
308.15 K, x2 = 0.9002	–	1.02
308.15 K, x2 = 0.9499	–	0.53

CCO + CCCC[n+]1ccn(C)c1.[Cl-]
x1 = 1
Details	viscosity [mPa·s]
293.15 K	1.19
298.15 K	1.08
308.15 K	0.89

CC#N + CCCC[n+]1ccn(C)c1.[Cl-]
x1 = 1
Details	viscosity [mPa·s]
293.15 K	0.36
298.15 K	0.35
303.15 K	0.32
